From patent US20250115581A1, “SUBSTITUTED PIPERIDINES AS CK1A DEGRADERS” (Monte Rosa Therapeutics, Inc., priority 2022, published 2025)

What was measured:
[1] = molecular target: CRBN/DDB1 (Homo sapiens, UniProt Q96SW2); assay: HTRF binding assay (displacement of Cy5-thalidomide probe from CRBN/DDB1); conditions: CRBN/DDB1 2.5 nM, Cy5-Thalidomide 100 nM, 30 min; geometric mean; read-out: HTRF_Thali_Disp_DR_geo_IC50
Text: Binding of test compounds to CRBN/DDB1 was monitored in an HTRF assay using 1-[5-({2-[2-(2-{[2-(2,6-dioxopiperidin-3-yl)-1,3-dioxo-2,3-dihydro-1H-isoindol-4-yl]oxy}acetamido)ethoxy]ethyl}carbamoyl)pentyl]-3,3-dimethyl-2-[(1E,3E)-5-[(2E)-1,3,3-trimethyl-5-sulfo-2,3-dihydro-1H-indol-2-ylidene]penta-1,3-dien-1-yl]-3H-indol-1-ium-5-sulfonate as a fluorescent probe. In this assay, compounds displace the fluorescently labeled thalidomide-based probe bound to CRBN and fluorescence is monitored with increasing compound concentration. Assays were conducted in Greiner white 384 well HiBase plates (Cat. No 784075-25) in 10 μL total volume. A one pot detection solution of CRBN/DDB1 (2.5 nM), anti-His Terbium Cryptate Gold (1×, PerkinElmer Cat. #: 61HI2TLB), and Cy5-Thalidomide (100 nM, Tenova Cat.: T52461) was prepared in 20 mM HEPES, 20 mM NaCl, 0.2 mM TCEP, 0.2 mM EDTA, and 0.005% Tween20 was dispensed to each assay plate. Test compounds were stored in dry, ambient temperatures at 10 mM. A 10-point, 1:3 dilution series was prepared from 10 mM stock concentrations in Echo-compatible LDV plates. 10 nL of each compound dilution series was dispensed into assays wells using an Echo 650 (Labcyte inc. USA). 10 nL of 10 mM lenalidomide (Selleckchem Cat no. S1029) was transferred into the active-control wells for the assay and 10 nL of DMSO was transferred into the negative control wells. The assay was then allowed to incubate for 30 min at ambient temperature after transferring the test compounds. Plate measurements were taken on a Pherastar FSX (BMG Labtech, Germany) using the HTRF Red filter (Ex. 337 nm, em1: 620 nm, em2: 665 nm) (Flashes: 50, Integration time: 60-400 μs, Z-height: 10 mm, Ratio-multiplier: 10,000). Analysis, HTRF ratio and IC50 values were derived using KNIME analytics (KNIME Zurich) transformation and fitting within Collaborative Drug Discovery (Collaborative Drug Discovery USA) using a 4-parameter logistic fit. HTRF ratio calculation was performed using the following formula: […]
where em665 nm represents the measured emission at 665 nm upon excitation at 337 nm and em620 nm the measured emission at 620 nm upon excitation at 337 nm. The 4 parameter logistic fitting model was performed using the following formula: […]
where Y represents the HTRF ratio response (as defined previously), X the compound concentration in μM, Ymin the minimum response plateau, Ymax the maximum response plateau, IC50 the concentration of […] that gives a response half way between Ymin and Ymax and HillSlope the steepness of the family of curves. No fitting model constraints was applied on Ymin, or Ymax whilst IC50>0 and −0.5>HillSlope>−3 Cheng-Prusoff transformation
Ki values were derived from the geometric mean of the IC50 values using the Cheng-Prusoff transformation:
where [L] represents the concentration of fluorescent probe in […], Kd the affinity (binding constant) of the fluorescent probe in units of μM and IC50 the concentration of agonist that gives a response halfway between Ymin and Ymax (as described in 1.2.1)
Analysis and IC50 values were derived using KNIME analytics (KNIME, Zurich) transformation and fitting within Collaborative Drug Discovery (Collaborative Drug Discovery, USA) as described in 1.2.1. Ki values were derived from the geometric mean of the IC50 values using the Cheng-Prusoff transformation as described in 2.2.2. Data was visualized in GraphPad Prism 8.1.2 (GraphPad, USA) and reported as mean and standard deviation. Microsoft Office Excel 2012 (Redmond, WA) was used for calculation of mean and standard deviation.
IC50 data are reported in Table 3 for compounds in Table 1. In Table 3 below, According to the code, A represents a IC50 value of ≤0.1 μM, B represents a IC50 value >0.1 μM and ≤1 μM, C represents an IC50 value >1 μM.

[2] = molecular target: T1, CK1α (Homo sapiens, UniProt P48729+Q96SW2); assay: CK1α NanoBit Assay (HiBiT-tagged CSNK1A1 in HEK293 cells, luminescence); format: cell-based; conditions: 24 h
T1 construct: HEK293 clonal lines with CRISPR KI HiBiT tag on CSNK1A1; host or cells: HEK293 clonal line, CRISPR knock-in HiBiT at the CSNK1A1 locus, stably expressing LgBiT
Protocol: HEK293 clonal lines with CRISPR KI HiBiT tag on CSNK1A1 and stably expressing LgBiT protein were obtained from Promega (Madison, WI). Cells were plated at 5000 cells per well using Multiflo (BioTek) in 384-well white solid bottom plates (Corning, 3570BC) in 25 μl volume in DMEM media (DMEM, high glucose, HEPES, no phenol red (ThermoFisher Scientific, 21063029)) containing 10% FBS (Corning, 35-075-CV), 1% Penicillin/Streptomycin ((ThermoFisher Scientific, 15140-122), and 0.2% Endurazine (Nano-Glo Endurazine Live Cell Substrate (Promega, N2571)). Cells were incubated for 16 hours at 37° C., 5% CO2. Depending on experiment 25 or 75 nL of a compound at 10 mM were added into the plate using an Echo® 650 liquid handler (Labcyte) to achieve final concentration of 10 or 30 μM in wells. Cells were incubated at 37° C., 5% CO2 for 24 hours and then signal was read on a Pherastar FSX using “LUM plus” optic module.
Data analysis was performed in Scinamic (Scinamic, Cambridge, MA). Luminescence response (R) was calculated by the formula: response=100*(S−N)/(P−N) where S is the signal of the well, N and P the mean negative and positive control values respectively of the same plate. The luminescence response was then fitted in Scinamic using a 3-parameter agonist logistic fit (hillslope=1, EC50>0, top/bottom unconstrained).
DC50 data are reported in Table 2 for compounds in Table 1. In Table 2 below, According to the code, A represents a DC50 value of ≤0.1 μM, B represents a DC50 value >0.1 μM and ≤1 μM, C represents an DC50 value >1 μM.

T1 sequence (P48729 whole entry): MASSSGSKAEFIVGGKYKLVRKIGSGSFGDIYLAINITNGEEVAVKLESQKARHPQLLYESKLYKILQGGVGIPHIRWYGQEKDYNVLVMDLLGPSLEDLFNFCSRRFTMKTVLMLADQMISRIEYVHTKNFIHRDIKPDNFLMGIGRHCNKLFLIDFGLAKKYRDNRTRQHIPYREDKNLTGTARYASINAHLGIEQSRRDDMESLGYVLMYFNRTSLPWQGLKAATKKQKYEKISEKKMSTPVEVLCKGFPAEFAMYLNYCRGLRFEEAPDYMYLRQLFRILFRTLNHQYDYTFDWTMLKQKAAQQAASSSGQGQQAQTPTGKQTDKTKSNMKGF
T1 sequence (Q96SW2 whole entry): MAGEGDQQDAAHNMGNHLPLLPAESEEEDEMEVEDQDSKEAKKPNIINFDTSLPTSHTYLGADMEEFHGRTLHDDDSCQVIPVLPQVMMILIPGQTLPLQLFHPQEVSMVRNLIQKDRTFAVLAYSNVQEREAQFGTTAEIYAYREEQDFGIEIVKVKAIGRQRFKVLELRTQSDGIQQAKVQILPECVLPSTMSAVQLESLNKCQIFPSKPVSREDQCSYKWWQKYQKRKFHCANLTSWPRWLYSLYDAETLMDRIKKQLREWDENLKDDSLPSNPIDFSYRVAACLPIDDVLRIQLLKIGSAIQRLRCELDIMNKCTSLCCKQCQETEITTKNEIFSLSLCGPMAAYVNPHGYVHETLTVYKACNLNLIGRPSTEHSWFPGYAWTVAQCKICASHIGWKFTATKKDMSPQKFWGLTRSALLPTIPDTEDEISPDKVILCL
T1 sequence (Q16531 whole entry partner): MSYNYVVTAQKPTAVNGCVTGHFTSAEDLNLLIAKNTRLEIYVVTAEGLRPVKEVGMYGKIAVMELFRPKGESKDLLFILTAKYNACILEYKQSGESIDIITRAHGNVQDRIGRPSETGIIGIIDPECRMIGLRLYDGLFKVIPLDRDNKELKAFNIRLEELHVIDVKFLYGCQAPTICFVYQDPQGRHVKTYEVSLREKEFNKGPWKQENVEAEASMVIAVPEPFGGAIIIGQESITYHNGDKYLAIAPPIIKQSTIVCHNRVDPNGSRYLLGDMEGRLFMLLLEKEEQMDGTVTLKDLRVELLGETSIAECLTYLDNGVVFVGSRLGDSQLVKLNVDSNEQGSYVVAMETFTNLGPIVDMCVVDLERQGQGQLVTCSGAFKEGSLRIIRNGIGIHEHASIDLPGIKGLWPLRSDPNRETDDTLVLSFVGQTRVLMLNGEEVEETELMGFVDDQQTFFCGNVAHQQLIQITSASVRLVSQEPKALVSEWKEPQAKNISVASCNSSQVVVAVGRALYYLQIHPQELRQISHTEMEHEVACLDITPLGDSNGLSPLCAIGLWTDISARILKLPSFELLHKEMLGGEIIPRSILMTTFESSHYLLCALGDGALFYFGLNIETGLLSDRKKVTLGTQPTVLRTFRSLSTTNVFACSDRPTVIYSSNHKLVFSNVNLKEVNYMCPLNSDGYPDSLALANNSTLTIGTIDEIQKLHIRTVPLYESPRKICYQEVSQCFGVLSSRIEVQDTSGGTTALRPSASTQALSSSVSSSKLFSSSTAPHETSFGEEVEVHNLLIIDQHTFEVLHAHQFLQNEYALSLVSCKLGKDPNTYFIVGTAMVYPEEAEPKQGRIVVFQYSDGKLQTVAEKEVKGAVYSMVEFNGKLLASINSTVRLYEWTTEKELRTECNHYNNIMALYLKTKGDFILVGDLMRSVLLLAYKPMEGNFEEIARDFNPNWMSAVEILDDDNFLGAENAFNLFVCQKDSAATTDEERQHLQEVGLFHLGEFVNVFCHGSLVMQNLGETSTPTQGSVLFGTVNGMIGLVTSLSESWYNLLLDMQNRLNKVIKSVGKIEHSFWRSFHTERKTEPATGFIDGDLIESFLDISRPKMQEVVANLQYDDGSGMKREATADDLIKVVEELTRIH
CRBN/DDB1, sequence (Q96SW2 whole entry): as the sequence (Q96SW2 whole entry) above
CRBN/DDB1, sequence (Q16531 whole entry partner): as the sequence (Q16531 whole entry partner) above

Compound | IC50 [1] [nM] | DC50 [2] [µM]
O=C1CCC(N2Cc3cc(N4CCN(c5ccc6c(c5)OCC6)C4=O)ccc3C2=O)C(=O)N1 (centres unmarked) [Compound 127, 3-(5-(3-(2,3-dihydrobenzofuran-6-yl)-2-oxoimidazolidin-1-yl)-1-oxoisoindolin-2-yl)piperidine-2,6-dione] | > 1000 | ≤ 0.1
COCc1ccc(N2CCN(c3ccc4c(c3)CN(C3CCC(=O)NC3=O)C4=O)C2=O)cc1 (centres unmarked) [Compound 128, 3-(5-(3-(4-(methoxymethyl)phenyl)-2-oxoimidazolidin-1-yl)-1-oxoisoindolin-2-yl)piperidine-2,6-dione] | 100 to 1000 | ≤ 0.1
O=C1CCC(N2Cc3cc(N4CCN(c5ccc(C(F)F)cc5)C4=O)ccc3C2=O)C(=O)N1 (centres unmarked) [Compound 129, 3-(5-(3-(4-(difluoromethyl)phenyl)-2-oxoimidazolidin-1-yl)-1-oxoisoindolin-2-yl)piperidine-2,6-dione] | 100 to 1000 | ≤ 0.1
O=C1CCC(N2Cc3cc(N4CCN(c5ccc(C6CCC6)cc5)C4=O)ccc3C2=O)C(=O)N1 (centres unmarked) [Compound 131, 3-(5-(3-(4-cyclobutylphenyl)-2-oxoimidazolidin-1-yl)-1-oxoisoindolin-2-yl)piperidine-2,6-dione] | > 1000 | ≤ 0.1
COC1(c2ccc(N3CCN(c4ccc5c(c4)CN(C4CCC(=O)NC4=O)C5=O)C3=O)cc2)CC1 (centres unmarked) [Compound 133, 3-(5-(3-(4-(1-methoxycyclopropyl)phenyl)-2-oxoimidazolidin-1-yl)-1-oxoisoindolin-2-yl)piperidine-2,6-dione] | 100 to 1000 | ≤ 0.1
CC1(c2ccc(N3CCN(c4ccc5c(c4)CN(C4CCC(=O)NC4=O)C5=O)C3=O)cc2)CC1 (centres unmarked) [Compound 135, 3-(5-(3-(4-(1-methylcyclopropyl)phenyl)-2-oxoimidazolidin-1-yl)-1-oxoisoindolin-2-yl)piperidine-2,6-dione] | > 1000 | ≤ 0.1
COCc1cccc(N2CCN(c3ccc4c(c3)CN(C3CCC(=O)NC3=O)C4=O)C2=O)c1 (centres unmarked) [Compound 136, 3-(5-(3-(3-(methoxymethyl)phenyl)-2-oxoimidazolidin-1-yl)-1-oxoisoindolin-2-yl)piperidine-2,6-dione] | 100 to 1000 | ≤ 0.1
CO[C@@H](C)c1cccc(N2CCN(c3ccc4c(c3)CN(C3CCC(=O)NC3=O)C4=O)C2=O)c1 (stereo partly drawn) [Compound 139, 3-(5-(3-(3-((S)-1-methoxyethyl)phenyl)-2-oxoimidazolidin-1-yl)-1-oxoisoindolin-2-yl)piperidine-2,6-dione] | 100 to 1000 | ≤ 0.1
O=C1CCC(N2Cc3cc(N4CCN(c5cccc6c5CCO6)C4=O)ccc3C2=O)C(=O)N1 (centres unmarked) [Compound 140, 3-(5-(3-(2,3-dihydrobenzofuran-4-yl)-2-oxoimidazolidin-1-yl)-1-oxoisoindolin-2-yl)piperidine-2,6-dione] | 100 to 1000 | ≤ 0.1
O=C1CCC(N2Cc3cc(N4CCN(c5ccc(C6CCOC6)cc5)C4=O)ccc3C2=O)C(=O)N1 (centres unmarked) [Compound 144, 3-(1-oxo-5-(2-oxo-3-(4-(tetrahydrofuran-3-yl)phenyl)imidazolidin-1-yl)isoindolin-2-yl)piperidine-2,6-dione] | 100 to 1000 | ≤ 0.1
O=C1CCC(N2Cc3cc(N4CCN(c5ccc(C6COC6)cc5)C4=O)ccc3C2=O)C(=O)N1 (centres unmarked) [Compound 146, 3-(5-(3-(4-(oxetan-3-yl)phenyl)-2-oxoimidazolidin-1-yl)-1-oxoisoindolin-2-yl)piperidine-2,6-dione] | 100 to 1000 | ≤ 0.1

Next, values leading:

IC50 [1] [nM] | DC50 [2] [µM] | Compound
> 1000 | 0.1 to 1 | Cc1ccc(N2C(=O)N(c3ccc4c(c3)CN(C3CCC(=O)NC3=O)C4=O)CC2C)cn1 (centres unmarked) [Compound 122, 3-(5-(4-methyl-3-(6-methylpyridin-3-yl)-2-oxoimidazolidin-1-yl)-1-oxoisoindolin-2-yl)piperidine-2,6-dione]
100 to 1000 | ≤ 0.1 | Cc1ccc(N2C(=O)N(c3ccc4c(c3)CN(C3CCC(=O)NC3=O)C4=O)C[C@H]2C)cc1 (stereo partly drawn) [Compound 130, 3-(5-((R)-4-methyl-2-oxo-3-(p-tolyl)imidazolidin-1-yl)-1-oxoisoindolin-2-yl) piperidine-2,6-dione]
100 to 1000 | ≤ 0.1 | C[C@@H]1CN(c2ccc3c(c2)CN(C2CCC(=O)NC2=O)C3=O)C(=O)N1c1cnccn1 (stereo partly drawn) [Compound 132, 3-(5-((R)-4-methyl-2-oxo-3-(pyrazin-2-yl)imidazolidin-1-yl)-1-oxoisoindolin-2-yl)piperidine-2,6-dione]
100 to 1000 | ≤ 0.1 | COCc1ccc(N2C(=O)N(c3ccc4c(c3)CN(C3CCC(=O)NC3=O)C4=O)C[C@H]2C)cc1 (stereo partly drawn) [Compound 134, 3-(5-((R)-3-(4-(methoxymethyl)phenyl)-4-methyl-2-oxoimidazolidin-1-yl)-1-oxoisoindolin-2-yl)piperidine-2,6-dione]
100 to 1000 | ≤ 0.1 | C[C@@H]1CN(c2ccc3c(c2)CN(C2CCC(=O)NC2=O)C3=O)C(=O)N1C1CCCC1 (stereo partly drawn) [Compound 138, 3-(5-((R)-3-cyclopentyl-4-methyl-2-oxoimidazolidin-1-yl)-1-oxoisoindolin-2-yl)piperidine-2,6-dione]
100 to 1000 | ≤ 0.1 | C[C@@H]1CN(c2ccc3c(c2)CN(C2CCC(=O)NC2=O)C3=O)C(=O)N1C1CCC1 (stereo partly drawn) [Compound 142, 3-(5-((R)-3-cyclobutyl-4-methyl-2-oxoimidazolidin-1-yl)-1-oxoisoindolin-2-yl)piperidine-2,6-dione]
100 to 1000 | ≤ 0.1 | COC[C@@H]1CN(c2ccc3c(c2)CN(C2CCC(=O)NC2=O)C3=O)C(=O)N1c1ccc(C)cc1 (stereo partly drawn) [Compound 143, 3-(5-((S)-4-(methoxymethyl)-2-oxo-3-(p-tolyl)imidazolidin-1-yl)-1-oxoisoindolin-2-yl)piperidine-2,6-dione]
100 to 1000 | ≤ 0.1 | Cc1ccc(N2C(=O)N(c3ccc4c(c3)CN(C3CCC(=O)NC3=O)C4=O)C[C@@H]2C)cc1 (stereo partly drawn) [Compound 145, 3-(5-((S)-4-methyl-2-oxo-3-(p-tolyl)imidazolidin-1-yl)-1-oxoisoindolin-2-yl)piperidine-2,6-dione]
